The NIST ThermoML archive (doi:10.1016/j.fluid.2006.03.002)
± gives the expanded uncertainty stated by the source.

Assay: activity coefficient (dimensionless); of the first substance listed, at infinite dilution; xn = mol fraction of the nth substance listed
Settings: Liquid, Chromatography, x1 = 0

activity coefficient (308.15 K)	activity coefficient (318.15 K)	activity coefficient (328.15 K)	SMILES
17.3 ± 1.2	15.9 ± 1.1	13.8 ± 0.9	CCCCCCCC [octane] + CCCC[P+](C)(CCCC)CCCC.COS(=O)(=O)[O-]
8.2 ± 0.6	8 ± 0.5	7.1 ± 0.5	C=CCCCCC [1-heptene] + CCCC[P+](C)(CCCC)CCCC.COS(=O)(=O)[O-]
13.4 ± 0.9	12.2 ± 0.8	10.7 ± 0.7	CCCCCCC [heptane] + CCCC[P+](C)(CCCC)CCCC.COS(=O)(=O)[O-]
6.5 ± 0.4	6.4 ± 0.4	5.3 ± 0.4	C1CCCCCC1 [cycloheptane] + CCCC[P+](C)(CCCC)CCCC.COS(=O)(=O)[O-]
1.8 ± 0.1	1.7 ± 0.1	–	C#CCCCC [1-hexyne] + CCCC[P+](C)(CCCC)CCCC.COS(=O)(=O)[O-]
8.1 ± 0.6	7.7 ± 0.5	6.7 ± 0.5	CCCCC [pentane] + CCCC[P+](C)(CCCC)CCCC.COS(=O)(=O)[O-]
5.5 ± 0.4	5.4 ± 0.4	4.6 ± 0.3	C1CCCCC1 [cyclohexane] + CCCC[P+](C)(CCCC)CCCC.COS(=O)(=O)[O-]
4.5 ± 0.3	4.3 ± 0.3	3.5 ± 0.2	C1CCCC1 [cyclopentane] + CCCC[P+](C)(CCCC)CCCC.COS(=O)(=O)[O-]
10.1 ± 0.7	10 ± 0.7	8.9 ± 0.6	C=CCCCCCC [oct-1-ene] + CCCC[P+](C)(CCCC)CCCC.COS(=O)(=O)[O-]
6.4 ± 0.4	6 ± 0.4	5.3 ± 0.4	C=CCCCC [hex-1-ene] + CCCC[P+](C)(CCCC)CCCC.COS(=O)(=O)[O-]
10.3 ± 0.7	9.5 ± 0.7	8.4 ± 0.6	CCCCCC [hexane] + CCCC[P+](C)(CCCC)CCCC.COS(=O)(=O)[O-]
1 ± 0.1	1 ± 0.1	0.9 ± 0.1	c1ccccc1 [benzene] + CCCC[P+](C)(CCCC)CCCC.COS(=O)(=O)[O-]
